The values below are quoted from earlier work in patent US8109913B2, “Coiled wire for the controlled release of drugs to the eye” (DSM IP Assets B.V., priority 2005, dated 2012).

Each structure is given as a SMILES string.

For data set [1] the following is noted: in vivo, device loaded with atropine.
The conditions of data set [2]: in vitro.

Regarding `CN1[C@@H]2CC[C@H]1C[C@@H](OC(=O)C(CO)c1ccccc1)C2` (some centres unmarked) [atropine], the Mydriasis result in data set [1] is on record as “mydriasis can be obtained”. With `N#Cc1c(N2C[C@@H]3CCCN[C@@H]3C2)c(F)cc2c(=O)c(C(=O)O)cn(C3CC3)c12` [pradofloxacin], in data set [2], the “Activity of the drug when released from the coating” value is on record as “still active”.
